Data set [1] concerns Plasmopara viticola. Briefly: Plasmopara Test (Grapevine)/protective. It is filed as in vivo. The following applies: protective, application rate 100 g/ha, evaluation 6 days after inoculation. Here is the method: Plasmopara Test (Grapevine)/protective
To test for protective activity, young plants are sprayed with the preparation of active compound at the stated application rate. After the spray coating has dried on, the plants are inoculated with an aqueous spore suspension of Plasmopara viticola and then remain in an incubation cabinet at about 20° C. and 100% relative atmospheric humidity for 1 day. The plants are then placed in a greenhouse at about 21° C. and about 90% relative atmospheric humidity for 5 days. The plants are then moistened and placed in an incubation cabin for 1 day.
Evaluation is carried out 6 days after the inoculation. 0% means an efficacy which corresponds to that of the control, whereas an efficacy of 100% means that no infection is observed.

In data set [2] the test system is Podosphaera leucotricha. Put plainly: Podosphaera Test (Apple)/protective. The format is in vivo. The following applies: protective, application rate 100 g/ha, evaluation 10 days after inoculation. Here is the method: Podosphaera Test (Apple)/protective
To test for protective activity, young plants are sprayed with the preparation of active compound at the stated application rate. After the spray coating has dried on, the plants are inoculated with an aqueous spore suspension of the apple mildew pathogen Podosphaera leucotricha. The plants are then placed in a greenhouse at about 23° C. and a relative atmospheric humidity of about 70%.
(§1) Evaluation is carried out 10 days after the inoculation. 0% means an efficacy which corresponds to that of the control, whereas an efficacy of 100% means that no infection is observed.

In data set [3] the test system is Sphaerotheca fuliginea. Briefly: Sphaerotheca Test (Cucumber)/protective. It is filed as in vivo. Conditions: protective, application rate 100 g/ha, evaluation 10 days after inoculation. Here is the method: Sphaerotheca Test (Cucumber)/protective
To test for protective activity, young plants are sprayed with the preparation of active compound at the stated application rate. After the spray coating has dried on, the plants are inoculated with an aqueous spore suspension of Sphaerotheca fuliginea. The plants are then placed in a greenhouse at about 23° C. and a relative atmospheric humidity of about 70%.
as §1

The test system of data set [4] is Leptosphaeria nodorum. Put plainly: Leptosphaeria nodorum Test (Wheat)/protective. The following applies: protective, application rate 750 g/ha, evaluation 12-14 days after inoculation. The format is in vivo. The method, then: Leptosphaeria nodorum Test (Wheat)/protective
To test for protective activity, young wheat plants are sprayed with the preparation of active compound at the stated application rate. 1 day after the treatment, the plants are inoculated with an aqueous spore suspension of Leptosphaeria nodorum and then remain at 100% rel. atmospheric humidity and 20° C. for 48 h. The plants are then placed in a greenhouse at 80% rel. atmospheric humidity and a temperature of 22° C.
Evaluation is carried out 12-14 days after the inoculation. 0% means an efficacy which corresponds to that of the control, whereas an efficacy of 100% means that no infection is observed.

Data set [5] relates to Alternaria solani. Briefly: Alternaria Test (Tomato)/protective. The format is in vivo. Conditions: protective, application rate 750 g/ha, evaluation 7 days after inoculation. Here is the method:
Alternaria Test (Tomato)/protective
To test for protective activity, young tomato plants are sprayed with the preparation of active compound at the stated application rate. 1 day after the treatment, the plants are inoculated with a spore suspension of Alternaria solani and then remain at 100% rel. humidity and 20° C. for 24 h. The plants then remain at 96% rel. atmospheric humidity and a temperature of 20° C.
Evaluation is carried out 7 days after the inoculation. 0% means an efficacy which corresponds to that of the control, whereas an efficacy of 100% means that no infection is observed.

The subject of data set [6] is Pyricularia oryzae. The format is in vivo. The following applies: rice, protective, application rate 125 g/ha, evaluation 7 days after inoculation.
The test system of data set [7] is larvae of the mustard beetle (Phaedon cochleariae). Briefly: Phaedon Larvae Test. The format is in vivo. The following applies: cabbage leaves dipped, concentration of active compound 1000 ppm. The text has this:
(§2) Solvent: 30 parts by weight of acetone

In data set [8] the test system is caterpillars of the armyworm (Spodoptera frugiperda). Put plainly: Spodoptera frugiperda Test. It is filed as in vivo. Conditions: cabbage leaves dipped, concentration of active compound 1000 ppm.
Source text: Spodoptera frugiperda Test
as §2

The subject of data set [9] is green peach aphid (Myzus persicae). Briefly: Myzus test. It is filed as in vivo. Conditions: broad bean seedlings dipped, concentration of active compound 1000 ppm.
Source text: as §2

Data set [10] deals with greenhouse red spider mite (Tetranychus urticae). Put plainly: Tetranychus Test (OP-resistant/dip Treatment). Conditions: bean plants dipped, OP-resistant, concentration of active compound 100 ppm.
Protocol: Emulsifier: 1 part by weight of alkylaryl polyglycol ether
After the desired period of time, the kill in % is determined. 100% means that all spider mites have been killed; 0% means that none of the spider mites have been killed.

A value given as a limit tells only on which side of the number the result lay.

Compound `COC(=O)C(=COCF)c1ccccc1COc1ccn(-c2ccc(Cl)cc2)n1` [Example 1, methyl 2-[2-({[1-(4-chlorophenyl)-1H-pyrazol-3-yl]oxy}methyl)phenyl]-3-(fluoromethoxy)-2-acrylate] gave a chromatographic logP of 3.91. In addition, in data set [1], the efficacy is at least 98%. In [2], this compound came in with an efficacy of at least 98%. For the same compound, the efficacy in data set [3] is given as at least 98%. In data set [4], this compound showed an efficacy of at least 98%. The compound further showed an efficacy in [5] of at least 80%. In data set [6], this compound showed an efficacy of at least 80%. This compound also came in with a kill rate in [7] of 100%. This compound also showed a kill rate in data set [8] of 100%. Moreover, the kill rate in data set [9] is recorded as 100%. This compound showed a kill rate in data set [10] of 90%.

The record behind these values is patent US6562856B1, “Pyrazolyl benzyl ether deriviatives having a fluoromethoxy group and the use thereof as pesticides” (Bayer Aktiengesellschaft, priority 1999, dated 2003).
